Tests used:
BCRP = target: T1, BCRP (Homo sapiens, UniProt Q9UNQ0); details: cited from earlier work
T1 sequence (Q9UNQ0 1-655): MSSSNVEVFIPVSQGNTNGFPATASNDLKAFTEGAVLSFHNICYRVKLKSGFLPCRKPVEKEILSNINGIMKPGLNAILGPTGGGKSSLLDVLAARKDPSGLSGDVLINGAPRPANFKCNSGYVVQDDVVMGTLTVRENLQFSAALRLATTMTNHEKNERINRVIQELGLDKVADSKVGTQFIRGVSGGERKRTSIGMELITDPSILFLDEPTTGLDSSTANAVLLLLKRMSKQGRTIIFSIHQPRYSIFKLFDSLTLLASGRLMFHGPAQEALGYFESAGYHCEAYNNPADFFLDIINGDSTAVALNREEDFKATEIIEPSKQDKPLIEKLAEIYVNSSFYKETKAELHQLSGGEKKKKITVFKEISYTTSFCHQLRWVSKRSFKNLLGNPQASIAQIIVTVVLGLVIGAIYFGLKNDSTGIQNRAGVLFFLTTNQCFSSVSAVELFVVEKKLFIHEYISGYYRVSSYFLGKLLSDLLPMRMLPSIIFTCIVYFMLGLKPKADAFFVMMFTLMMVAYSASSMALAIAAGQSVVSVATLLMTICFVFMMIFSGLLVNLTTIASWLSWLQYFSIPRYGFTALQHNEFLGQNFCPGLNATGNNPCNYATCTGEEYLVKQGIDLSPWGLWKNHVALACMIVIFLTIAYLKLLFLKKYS

Pgp = Pgp (Homo sapiens, UniProt P08183); details: cited from earlier work
Chain of Pgp (P08183 whole entry): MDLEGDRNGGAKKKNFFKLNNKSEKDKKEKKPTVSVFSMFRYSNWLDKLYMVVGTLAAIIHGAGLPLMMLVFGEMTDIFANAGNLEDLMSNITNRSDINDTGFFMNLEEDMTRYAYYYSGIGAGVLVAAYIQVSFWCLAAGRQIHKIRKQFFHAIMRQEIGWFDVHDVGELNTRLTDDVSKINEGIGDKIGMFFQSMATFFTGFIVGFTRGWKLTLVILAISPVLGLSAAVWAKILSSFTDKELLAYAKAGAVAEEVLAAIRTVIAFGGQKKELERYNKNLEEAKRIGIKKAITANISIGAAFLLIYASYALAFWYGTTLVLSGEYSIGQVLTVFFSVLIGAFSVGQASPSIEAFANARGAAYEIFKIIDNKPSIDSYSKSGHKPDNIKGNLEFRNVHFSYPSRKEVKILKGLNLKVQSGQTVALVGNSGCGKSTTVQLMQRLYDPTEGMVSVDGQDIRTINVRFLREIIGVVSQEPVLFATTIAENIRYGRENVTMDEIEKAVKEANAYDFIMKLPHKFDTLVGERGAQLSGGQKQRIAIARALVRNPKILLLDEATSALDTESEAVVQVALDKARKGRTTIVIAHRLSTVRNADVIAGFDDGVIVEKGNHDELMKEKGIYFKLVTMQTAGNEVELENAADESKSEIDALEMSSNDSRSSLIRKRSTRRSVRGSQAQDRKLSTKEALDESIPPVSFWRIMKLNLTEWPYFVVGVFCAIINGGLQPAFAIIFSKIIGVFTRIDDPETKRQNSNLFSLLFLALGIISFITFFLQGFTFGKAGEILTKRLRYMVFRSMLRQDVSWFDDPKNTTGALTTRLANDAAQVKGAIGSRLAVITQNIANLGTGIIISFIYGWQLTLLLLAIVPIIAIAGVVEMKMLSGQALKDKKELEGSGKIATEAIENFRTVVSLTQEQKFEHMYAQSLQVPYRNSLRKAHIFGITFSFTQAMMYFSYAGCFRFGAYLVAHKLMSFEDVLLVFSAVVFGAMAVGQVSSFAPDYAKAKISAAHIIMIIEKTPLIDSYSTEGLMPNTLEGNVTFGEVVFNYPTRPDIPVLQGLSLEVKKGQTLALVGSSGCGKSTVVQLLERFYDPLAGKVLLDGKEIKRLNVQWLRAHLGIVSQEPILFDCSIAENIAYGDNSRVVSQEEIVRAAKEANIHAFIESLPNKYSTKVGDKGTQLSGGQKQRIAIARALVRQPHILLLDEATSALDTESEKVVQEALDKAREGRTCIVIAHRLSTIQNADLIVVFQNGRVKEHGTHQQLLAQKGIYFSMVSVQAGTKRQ

MRP2 = MRP2 (Homo sapiens, UniProt Q92887); details: MRP2/3; cited from earlier work
Chain of MRP2 (Q92887 whole entry): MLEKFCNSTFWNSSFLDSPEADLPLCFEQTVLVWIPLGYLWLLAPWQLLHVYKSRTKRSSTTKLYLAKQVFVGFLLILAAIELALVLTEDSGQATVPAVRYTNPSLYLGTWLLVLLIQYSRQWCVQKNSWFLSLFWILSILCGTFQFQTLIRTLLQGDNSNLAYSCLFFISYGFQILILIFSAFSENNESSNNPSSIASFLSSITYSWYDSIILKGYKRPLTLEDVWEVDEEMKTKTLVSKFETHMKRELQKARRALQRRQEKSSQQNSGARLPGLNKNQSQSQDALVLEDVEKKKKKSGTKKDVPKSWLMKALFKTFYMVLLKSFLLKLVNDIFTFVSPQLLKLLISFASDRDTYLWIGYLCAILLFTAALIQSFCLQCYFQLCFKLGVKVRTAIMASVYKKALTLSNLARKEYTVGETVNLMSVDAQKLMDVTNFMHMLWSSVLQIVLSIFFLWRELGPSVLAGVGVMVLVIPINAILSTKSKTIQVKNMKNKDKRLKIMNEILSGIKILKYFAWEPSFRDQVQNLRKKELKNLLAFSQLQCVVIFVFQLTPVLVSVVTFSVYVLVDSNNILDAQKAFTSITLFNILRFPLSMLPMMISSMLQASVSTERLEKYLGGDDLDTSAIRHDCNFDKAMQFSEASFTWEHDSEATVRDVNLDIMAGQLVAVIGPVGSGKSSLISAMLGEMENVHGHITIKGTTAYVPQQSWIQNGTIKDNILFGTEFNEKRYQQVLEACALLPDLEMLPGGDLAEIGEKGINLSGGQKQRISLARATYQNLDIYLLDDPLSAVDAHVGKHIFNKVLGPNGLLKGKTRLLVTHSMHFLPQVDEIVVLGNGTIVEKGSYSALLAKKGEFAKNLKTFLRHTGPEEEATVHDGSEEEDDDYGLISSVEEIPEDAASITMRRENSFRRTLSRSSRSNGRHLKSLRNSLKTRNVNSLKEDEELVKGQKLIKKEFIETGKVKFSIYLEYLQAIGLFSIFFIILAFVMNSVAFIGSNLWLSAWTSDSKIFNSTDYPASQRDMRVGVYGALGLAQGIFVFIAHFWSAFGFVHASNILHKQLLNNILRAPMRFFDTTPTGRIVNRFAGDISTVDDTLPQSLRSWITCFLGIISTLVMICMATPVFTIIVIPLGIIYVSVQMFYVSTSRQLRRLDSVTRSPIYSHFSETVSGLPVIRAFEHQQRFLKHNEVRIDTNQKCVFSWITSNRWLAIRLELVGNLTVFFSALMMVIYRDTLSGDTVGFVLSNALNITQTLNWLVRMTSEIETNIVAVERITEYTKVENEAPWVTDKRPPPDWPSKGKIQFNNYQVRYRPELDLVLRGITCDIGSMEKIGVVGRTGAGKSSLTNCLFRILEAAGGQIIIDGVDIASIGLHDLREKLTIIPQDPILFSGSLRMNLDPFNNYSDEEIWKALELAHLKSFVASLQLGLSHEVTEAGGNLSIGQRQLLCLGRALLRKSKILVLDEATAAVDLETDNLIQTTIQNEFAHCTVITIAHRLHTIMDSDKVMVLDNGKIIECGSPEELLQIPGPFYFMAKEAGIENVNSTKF

MRP3 = MRP3 (Homo sapiens, UniProt O15438); details: MRP2/3; cited from earlier work
Chain of MRP3 (O15438 whole entry): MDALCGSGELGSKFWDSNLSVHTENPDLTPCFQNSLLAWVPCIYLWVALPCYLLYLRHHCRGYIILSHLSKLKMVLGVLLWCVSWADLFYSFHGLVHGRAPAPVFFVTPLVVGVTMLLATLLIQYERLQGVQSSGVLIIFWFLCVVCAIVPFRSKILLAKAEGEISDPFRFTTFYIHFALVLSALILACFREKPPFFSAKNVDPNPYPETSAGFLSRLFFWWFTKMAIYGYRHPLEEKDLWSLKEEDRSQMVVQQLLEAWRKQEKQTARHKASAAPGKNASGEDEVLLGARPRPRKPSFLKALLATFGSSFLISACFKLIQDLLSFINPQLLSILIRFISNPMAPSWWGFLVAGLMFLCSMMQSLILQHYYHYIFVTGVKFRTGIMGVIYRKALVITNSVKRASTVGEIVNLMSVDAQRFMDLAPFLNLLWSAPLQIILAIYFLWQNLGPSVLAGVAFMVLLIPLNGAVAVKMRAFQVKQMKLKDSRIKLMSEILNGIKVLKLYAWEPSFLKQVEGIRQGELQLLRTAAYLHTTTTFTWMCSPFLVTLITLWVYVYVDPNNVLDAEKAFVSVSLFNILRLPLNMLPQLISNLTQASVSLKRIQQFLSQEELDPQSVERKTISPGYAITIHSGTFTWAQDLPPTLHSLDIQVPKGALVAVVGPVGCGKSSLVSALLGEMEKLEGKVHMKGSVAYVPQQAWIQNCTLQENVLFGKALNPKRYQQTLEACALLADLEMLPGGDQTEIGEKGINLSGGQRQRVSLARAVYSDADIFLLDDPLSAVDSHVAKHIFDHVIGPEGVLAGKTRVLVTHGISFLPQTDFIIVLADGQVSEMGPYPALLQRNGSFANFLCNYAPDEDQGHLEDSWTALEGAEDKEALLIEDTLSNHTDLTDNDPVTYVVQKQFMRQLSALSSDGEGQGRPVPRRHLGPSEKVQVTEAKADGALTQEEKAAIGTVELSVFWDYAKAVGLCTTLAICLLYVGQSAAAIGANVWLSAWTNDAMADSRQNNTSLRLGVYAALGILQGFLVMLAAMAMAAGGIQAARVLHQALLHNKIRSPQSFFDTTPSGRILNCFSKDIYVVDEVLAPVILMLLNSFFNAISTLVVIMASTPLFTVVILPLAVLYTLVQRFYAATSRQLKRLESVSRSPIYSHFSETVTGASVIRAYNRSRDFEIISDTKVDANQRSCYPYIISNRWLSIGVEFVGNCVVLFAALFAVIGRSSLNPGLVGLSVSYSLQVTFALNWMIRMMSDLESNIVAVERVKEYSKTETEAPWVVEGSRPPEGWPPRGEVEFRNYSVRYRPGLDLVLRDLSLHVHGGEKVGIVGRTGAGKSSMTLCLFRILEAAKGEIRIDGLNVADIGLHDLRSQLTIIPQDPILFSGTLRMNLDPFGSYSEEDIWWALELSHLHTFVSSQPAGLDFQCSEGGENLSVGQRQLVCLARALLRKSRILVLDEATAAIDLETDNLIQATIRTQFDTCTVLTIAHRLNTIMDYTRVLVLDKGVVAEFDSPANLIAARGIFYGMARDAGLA

BSEP = BSEP (Homo sapiens, UniProt O95342); details: cited from earlier work
[1] = Phase 2a open-label combination study, pharmacokinetics and safety; type: in vivo, human; details: for change of exposure on reducing ODV dosing from QD to QOD: 50 mg
Description: A randomized, Phase 2a, open-label study was carried out to evaluate the safety, pharmacokinetics and efficacy of the combination of Compound (III), Odalasvir and Simeprevir in Genotype 1 treatment-naïve subjects with chronic hepatitis C. Other treatment-naïve subjects included Genotype 2, 3, 4, 5 and 6. The aim of the study was to determine the efficacy, pharmacokinetics (PK), and safety of Compound (III)+Odalasvir±SMV in HCV-infected subjects. […] Efficacy, PK and safety evaluations were conducted during and through 24 weeks post dosing. Up to 15 cohorts were enrolled; data was generated from cohorts that have completed dosing.

[2] = PK analysis of fixed dose combinations vs single agents, single dose in healthy volunteers; type: in vivo, human; details: Arm 2 (FDC02) vs reference (Arm 1); 90% CI in the row below
Description: SMV (100 mg), ODV (50 mg), and Compound (III) (800 mg) were administered as three different formulations or together as single doses in vivo to healthy volunteers. The arms of the study included: • Arm 1 (Reference Arm): Single oral doses of single agents, one SMV 100-mg capsule, one ODV 50-mg tablet as granule layered solid dispersion with copovidone and poloxamers, and two Compound (III) 400-mg tablets, administered together. • Arm 2: Single oral dose of fixed dose combination (FDC02): SMV 100 mg+ODV 50 mg as a spray dried solid dispersion with HPMC-AS L in a ratio ODV/HPMC-AS L 1/1 w/w+Compound (III) 800 mg • Arm 3: Single oral dose of fixed dose combination (FDC04): SMV 100 mg+ODV 50 mg as a spray dried solid dispersion with HPMC-AS L in a ratio ODV/HPMC-AS L 1/3 w/w+Compound (III) 800 mg • Arm 4: Single oral dose of fixed dose combination (FDC01): SMV 100 mg+ODV 50 mg as a spray dried solid dispersion with copovidone and poloxamers+Compound (III) 800 mg
PK parameters, including Cmax, tmax, AUClast, and AUC∞ were measured for Compound (III), ODV, SMV, and metabolites Compound A-I and Compound A-3 for each Arm of the study. Arms that included fixed dose combinations (FDC) (Arm 2, Arm 3, and Arm 4) were then compared to a single oral dose (Arm 1, the reference Arm). […]

Least Square Means Ratio, Cmax [2] | Compound | inhibition of BCRP (BCRP) | in vitro inhibition of Pgp (Pgp) | inhibition of MRP2 (MRP2) | inhibition of MRP3 (MRP3) | inhibition of BSEP (BSEP) | change of exposure on reducing ODV dosing from QD to QOD [1] | change of exposure on reducing ODV dosing from QD to QOD ([1]; listed as Odalasvir) | observed exposure in Cohort 1 / group (i) ([1]; Compound (III) 400 mg, ODV 50 mg QD, SMV 100 mg QD)
 | CC(C)OC(=O)[C@H](C)N[P@](=O)(OC[C@@]1(F)O[C@@H](n2ccc(=O)[nH]c2=O)[C@](C)(O)[C@@H]1O)Oc1ccccc1 [Compound (III), isopropyl ((S)-(((2S,3S,4R,5R)-5-(2,4-dioxo-3,4-dihydropyrimidin-1 (2H)-yl)-2-fluoro-3,4-dihydroxy-4-methyltetrahydrofuran-2-yl)methoxy)(phenoxy)phosphoryl)-L-alaninate] | no in vitro inhibition | no in vitro inhibition |  |  |  |  |  | 
81.00% | COC(=O)N[C@H](C(=O)N1[C@H](c2nc3cc(-c4cc5ccc4CCc4ccc(c(-c6ccc7[nH]c([C@@H]8C[C@@H]9CCCC[C@@H]9N8C(=O)[C@@H](NC(=O)OC)C(C)C)nc7c6)c4)CC5)ccc3[nH]2)C[C@@H]2CCCC[C@@H]21)C(C)C [ODV, methyl [(2S)-1-[(2S,3aS,7aS)-2-[6-[11-[2-[(2S,3aS,7aS)-1-[(2S)-2-[(methoxycarbonyl)amino]-3-methylbutanoyl]octahydro-1H-indol-2-yl]-1H-benzimidazol-6-yl]tricyclo[8.2.2.2^4,7]hexadeca-1(12),4,6,10,13,15-hexaen-5-yl]-1H-benzimidazol-2-yl]octahydro-1H-indol-1-yl]-3-methyl-1-oxobutan-2-yl]carbamate] | no inhibition |  | no inhibition | no inhibition | no inhibition | decreased ODV exposure proportionally | decreased Odalasvir exposure proportionally | higher than anticipated
